Patent US20070249545A1, “DIHYDROFOLATE REDUCTASE INHIBITION BY EPIGALLOCATECHIN GALLATE COMPOUNDS” (priority 2004, published 2007)
Read-outs that look alike come from different tables or passages of the source.

What was measured:
bovine liver DHFR = target: T1, bovine liver DHFR (Bos taurus, UniProt P00376); experiment: Kinetic analysis of inhibition of bovine liver DHFR; assay type: biochemical
T1 construct: from tissue; host or cells: bovine liver
T1 sequence (P00376 1-187): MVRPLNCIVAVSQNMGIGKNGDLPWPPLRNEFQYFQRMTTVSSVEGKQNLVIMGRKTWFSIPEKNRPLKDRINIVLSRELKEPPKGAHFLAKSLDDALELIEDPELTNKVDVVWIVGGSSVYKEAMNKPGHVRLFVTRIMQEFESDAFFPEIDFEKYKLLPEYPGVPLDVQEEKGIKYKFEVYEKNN
Description: The activity of DHFR was determined at 25° C. by following the decrease of NADPH and DHF by absorbance measurements at 340 nm (ε=11,800 M^−1 cm^−1) by using a Perkin-Elmer Lambda-2 spectrophotometer with cuvettes of 1.0 cm light-path.
Experiments were performed at pH 7.58 and 25° C. in a buffer containing 2-(N-morpholino)ethanesulfonic acid (MES, 25 mM), sodium acetate (25 mM), tris(hydroxymethyl)aminomethane (Tris 50 mM), and NaCl (100 mM). To prevent the oxidation of catechins, the reaction mixture contained 1 mM ascorbic acid. The pH of the reaction was measured before and after of the experiment. The assays were started by the addition of enzyme. In the absence of the enzyme, the rate of change of absorbance was negligible. […]
Progress curves for the slow, tight-binding inhibition of bovine liver DHFR by EGCG were determined by continuously monitoring the disappearance of NADPH and DHF after initiation of the reaction by the addition of 3.3 nM enzyme. Reaction mixtures contained buffer, NADPH (100 μM), DHF (20 μM) and EGCG. Assuming that the concentration of free inhibitor is not substantially altered by the formation of an enzyme-NADPH-inhibitor complex, the progress curve for the inhibition in the presence of saturating NADPH is described by Eqn. (1): P=vst+(v0−vs)(1−exp(−k′t))/k′
where vs, v0 and k′ represent the steady-state velocity, initial velocity and apparent first-order rate constant, respectively.
The values of k′ at different EGCG concentrations were obtained by non-linear regression analysis of the progress curves. KI and KI* denote the respective dissociation constants for the initial and equilibrium binding of inhibitors to the enzyme-NADPH complex (FIG. 5).

S. maltophilia DHFR = S. maltophilia DHFR (Stenotrophomonas maltophilia, UniProt B2FPG1); assay type: biochemical; conditions: S. maltophilia DHFR
Description: For the DHFR extraction, S. maltophilia strain number 1, was inoculated onto fresh agar 24 h before using. Then, liquid medium was inoculated with the strain and these broth cultures were incubated at 37° C. and shaken at 100 cycles per min. Solid medium was MacConkey agar (Oxoid Ltd., Basingstoke, England). Liquid medium was Brilliant Green Bile 2% broth (Oxoid). Bacteria were grown to mid-log phase, harvested by centrifugation (1,600 rpm 30 min) and washed twice in 50 mM phosphate buffer (pH 7.0) followed each time by a new centrifugation (1,600 rpm 5 min). Cell lysis, centrifugation, and dialysis were carried out between 4 and 8° C. Fast protein liquid chromatography (FPLC) purification steps were performed at room temperature. […] After centrifugation at 36,000 rpm for 30 min to remove cell debris, the supernatant was filtered. This supernatant was brought to 40% saturation with solid ammonium sulfate under continuous stirring. After 1 h the solution was centrifuged at 35,000 rpm for 30 min and the pellet discarded. Additional ammonium sulfate was added to the clear supernatant to give 90% saturation and stirred for 1 h. After centrifugation, the precipitates were suspended in 2 ml of buffer B (10 mM potassium phosphate buffer, pH 7.4, 2 mM β-mercaptoethanol). Concentrated enzyme (2 ml samples) was loaded onto a […] gel-filtration column (Sephacryl S-75 16/60 Hi-Prep, Amersham Pharmacia Biotech Europe GmbH, Barcelona, Spain), equilibrated with buffer B and eluted at 0.5 ml/min. The active fractions were concentrated and stored at −80° C. until used.
Initial velocity inhibition experiments were carried out for the inhibition studies of S. maltophilia with TMP and EGCG. One substrate (NADPH) was held constant at saturating concentration while the other substrate (DHF) and the inhibitor (TMP or EGCG) were varied. To prevent the oxidation of EGCG the reaction mixture contained 1 mM N-acetylcysteine (Sigma). For MTX inhibition the slow development of […] inhibition was determined by continuously monitoring the disappearance of NADPH and DHF after initiation of the reaction by the addition of DHFR. Reaction mixtures contained buffer, NADPH (100 μM), DHF (20 μM), and various concentrations of MTX. The extent of recovery of enzymatic activity following inhibition induced by preincubation with DHFR inhibitors was determined as follows. DHFR was preincubated for 30 min at 25° C. in the buffer mixture containing MTX, TMP or EGCG. An aliquot of the incubation mixture was then diluted 500-fold into a reaction mixture containing buffer mixture, NADPH (100 μM), and DHF (20 μM). Recovery of enzyme activity was followed by continuous monitoring at 340 nm.
Provided that the concentration of free inhibitor is not substantially altered by the formation of an enzyme-NADPH-inhibitor complex, the progress curve for the inhibition in the presence of saturating NADPH can be described by Eqn. 1 (as above): P=vst+(v0−vs)(1−exp(−kobst))/kobs • where vs, v0 and kobs represent the steady-state velocity, initial velocity and apparent first-order rate constant, respectively. The apparent first-order rate constant is related to the inhibitor concentration by Eqn. 2, where Ki denotes the dissociation constants for the initial binding of MTX to the enzyme-NADPH complex. [formula]

S. maltophilia = experiment: Broth dilution MIC determination; assay type: cell-based, Stenotrophomonas maltophilia
Description: Eighteen strains of cotrimoxazole susceptible S. maltophilia were collected during the last year at the Hospital Universitario Virgen de la Arrixaca (Murcia, Spain) from clinical isolates. Bacteria were frozen at −70° C. in glycerol-meat medium and inoculated onto Columbia agar (Fluka Chemie GmbH, Madrid, Spain) supplemented with 5% of defibrinated sheep blood 48 and 24 h prior to susceptibility testing.
MICs for the 18 strains were determined by the broth dilution method at a final inoculum of 5×10^5 CFU/ml, according to the guidelines recommended by the NCCLS by using cation-adjusted Mueller-Hinton broth (Fluka). After incubation at 37° C. for 24 h, the lowest concentration of the two-fold serially diluted EGCG at which no visible growth occurred was defined as its MIC.

p16 [1] = experiment: p16 methylation status in Jurkat T cells; assay type: cell-based, human; conditions: EGCG 20 μM, 7-days treatment
p16 [2] = experiment: p16 methylation status in Caco-2 cells; conditions: EGCG 20 μM, 7-days treatment
[3] = eighteen S. maltophilia isolates

Sequence of S. maltophilia DHFR (B2FPG1 entry or part of it): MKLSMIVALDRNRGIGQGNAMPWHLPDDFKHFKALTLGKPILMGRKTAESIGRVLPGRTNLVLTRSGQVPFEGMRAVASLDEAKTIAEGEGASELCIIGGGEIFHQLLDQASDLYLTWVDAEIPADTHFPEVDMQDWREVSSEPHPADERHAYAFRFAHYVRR

(−)-epigallocatechin gallate [EGCG]
k5 (bovine liver DHFR): 0.13 min⁻¹ | k5/k6 (bovine liver DHFR): 32.5 ratio | k6 (bovine liver DHFR): 0.004 min⁻¹ | type of inhibition (bovine liver DHFR): slow tight-binding inhibitor | Ki (bovine liver DHFR; equilibrium binding to enzyme-NADPH complex, read-out: KI*): 2.9 nM | Ki (bovine liver DHFR; initial binding to enzyme-NADPH complex, pH 7.58, 25° C., read-out: KI): 109 nM | Type of inhibition observed (S. maltophilia DHFR): competitive (reversible) | Ki (S. maltophilia DHFR; competitive respect to DHF, read-out: inhibition constant (Ki)): 4040 nM | effect of preincubation of the enzyme with inhibitor (S. maltophilia DHFR; preincubation 30 min, 500-fold dilution): did not showed any effect on enzymatic activity | MIC (S. maltophilia; S. maltophilia strain 1): 64 µg/mL | MIC50 (S. maltophilia; [3]): 32 µg/mL | MIC90 (S. maltophilia; [3]): 64 µg/mL | MICs (range) (S. maltophilia; [3]): 4 to 256 µg/mL | p16 methylation pattern (p16 [1]): changed from methylated to unmethylated | p16 methylation pattern (p16 [2]): changed from methylated to unmethylated
